Test results reported in patent US4914191A, “Anthracycline derivatives having cytostatic activity” (Behringwerke Aktiengesellschaft, priority 1987, dated 1990).
Values after ≈ are worked out from the molar mass of the structure shown. Like-named read-outs stand apart in the source and are kept apart here.

How the values were obtained:
L1210 leukemia cells = test: cross-resistance in vitro, MTT assay on sensitive and adriamycin (doxorubicin)-resistant L1210 leukemia cells; type: cell-based, mouse; details: 3d incubation
Protocol: L1210, A 549 or HT 29 in the exponential phase of growth are incubated in a cell density of 5×10^3 cells/ml in RPMI 1640 in a 96-well microtiter plate for 72 hours with various concentrations of the test substance at 37° C., 5% CO2 and 95% relative humidity. Control experiments contain merely growth medium in place of the test substance. Each test substance and the control are determined in quadruplicate. After incubation for 65 hours, 50 μl of MTT solution (2.5 mg/ml in phosphate-buffered saline) are added. In the presence of live cells, MTT is reduced to a dark-red insoluble formazan dyestuff. This reaction is complete after 7 hours (L1210 cells) or after 24 hours (A 549, HT 29 cells), and the supernatant medium is carefully removed by aspiration. The insoluble dyestuff is dissolved by addition of 100 μl of DMSO, and the extinction of the resulting solution at a wavelength of 492 nm is then measured for each well in a Flow 340 CC multiscan photometer.
The ratio of the extinctions of treated and untreated cells yields a dose-effect plot from which the concentration which just kills 50% of the cells (IC50) can be read off. The coefficient of variation for repeat tests is less than 15%.
The cross-resistance between the particular test compound and doxorubicin is determined using the MTT assay (for method, see above) on sensitive and resistant L1210 leukemia cells.
The resistant cell line was established by incubation of a sensitive subline with stepwise increasing concentrations of the reference compound.
The IC50 of the test compound on the resistant subline relative to the IC50 of the sensitive subline yields the degree of resistance both for the test compound (DR(T)) and for the reference compound (DR(R)) in accordance with the formula [formula]
In addition, the degree of cross-resistance (DCR) for the test compound is calculated in accordance with the formula [formula]
In the case where the loss of activity of the test compound on the resistant line related to the sensitive line is greater than that of the reference compound, a degree of cross-resistance of more than 100% is possible.

[1] = approximative toxicity, intraperitoneal (LD50); details: in vivo, ip, three intraperitoneal administrations with an interval of three days between each; read-out: Approximative toxicity LD50, 3xip, q3d
Description: *3xip,q3d: three intraperitoneal administrations with an interval of thre
1xip: one intraperitoneal administration

[2] = test system: L1210 mouse leukemia cells; test: formation of colonies of L1210 leukemia cells in soft agar; type: cell-based; details: Mus musculus
Protocol: The cytostatic activity of the compounds according to the invention was tested using L1210 mouse leukemia cells. This made use of the formation of colonies of L1210 leukemia cells in agar plates. This method is used to detect the effect of the test substances on the growth behavior of the cells over 1 hour or over several generations. With a cell cycle lasting 10-12 hours, this means that about 14 consecutive generations are observed in a test lasting 7 days. In this test, the substances having cytostatic activity according to the invention bring about a reduction in the number of colonies to be observed by comparison with an untreated control sample.
500 leukemia cells per plate were incubated with various concentrations of the test substance at 37° C. for 1 hour. These cells were then washed twice with McCoy5A medium and finally, after addition of 0.3% agar, poured into Petri dishes. Controls were incubated only with fresh medium. In some cases, in place of the incubation for one hour, various concentrations of test substances were mixed with the upper agar layer in order in this way to achieve continuous exposure of the cells throughout the incubation time. After the agar had solidified, the plates were incubated at 37° C. in an incubator for 7 days (5% by vol. CO2, 95% relative humidity). The number of colonies with a diameter of more than 60 μm which had formed was then counted. The results have been given as the number of colonies in treated agar plates as a percentage of the untreated control. The IC50 was determined, as a measure of the activity of the substance, from the dose-effect plot obtained in this way.

For `CC[C@@]1(O)C[C@H](O[C@H]2C[C@H](N(C)C)[C@H](OC(=O)c3ccc(OC)cc3)[C@H](C)O2)c2c(O)c3c(c(O)c2[C@H]1O[C@H]1C[C@H](N(C)C)[C@H](O)[C@H](C)O1)C(=O)c1cccc(O)c1C3=O` [Compound 12a, 7-O-[(4'-O-p-methoxybenzoyl)-α-L-rhodosaminyl]-10-O-α-L-rhodosaminyl-β-rhodomycinone], the “Degree of cross-resistance to adriamycin” value (L1210 leukemia cells) was 1.3%, the “Degree of resistance of the cell” value (L1210 leukemia cells; IC50 resistant subline relative to IC50 sensitive line) was 0.75 and the LD50 [1] was 10 to 15 mg/kg. It also gave an IC50 ([2]; 168 h, continuous exposure, 7 days, L1210 colony formation, read-out: Long-term incubation IC50) of 0.0085 µg/mL (≈ 0.0102 µM) and an IC50 ([2]; 1 h incubation, then 7 days colony formation, L1210, read-out: 1 h Incubation IC50) of 0.13 µg/mL (≈ 0.156 µM).
